Laboratory results reported in US7750145B2, “1-substituted-3-β-D-glucopyranosylated nitrogenous hetero-cyclic compounds and medicines containing the same” (Kissei Pharmaceutical Co., Ltd., priority 2004, dated 2010).

The compounds below were run on SD rats (assay: Assay for the effect on urinary glucose excretion). Details: overnight fasted male SD rats, oral 1 mg/kg, urine collected for 24 hours.
Format: in vivo, rat
Excerpt: Assay for the Effect on Urinary Glucose Excretion
As experimental animals, overnight fasted SD rats (CHARLES RIVER LABORATORIES JAPAN. Inc., Crj:CD(SD)IGS, male, 7-8 weeks of age, 180-300 g) were used. The test compound was suspended with 0.5% methylcellulose solution and the suspension was used for administration. On the day before drug administration, the rats were transferred in metabolic cages and fasted from the evening. Throughout the study, the rats were given water ad libitum. The test compound was orally administered at the dose of 1 mg/kg and urine collection was performed for 24 hours after the compound administration. The rats were fed ad libitum from 4 hours after the compound administration. The volume of urine collected was measured and a part of urine was used as a sample for glucose concentration measurement. The samples were diluted as appropriate and the glucose concentrations were measured with Glucose CII-Test WAKO (Wako Pure Chemical Industries, Ltd.) and the amount of urinary glucose excretion per 200 g of body weight was calculated.
`CCc1ccc(Cn2cc([C@@H]3O[C@H](CO)[C@@H](O)[C@H](O)[C@H]3O)c3c(C)cccc32)cc1` [Example 1, 1-(4-Ethylbenzyl)-3-(β-D-glucopyranosyl)-4-methyl-1H-indole] was tested, and the “Amount of urinary excretion of glucose in 24 hours” value (“Amount” for short) was 182 mg/200 g body weight.
With `COc1ccc(Cn2cc([C@@H]3O[C@H](CO)[C@@H](O)[C@H](O)[C@H]3O)c3c(C)cccc32)cc1` [Example 2] the “Amount” value was 27 mg/200 g body weight.
`CCc1ccc(Cn2cc([C@@H]3O[C@H](CO)[C@@H](O)[C@H](O)[C@H]3O)c3ccccc32)cc1` [Example 3] was tested, and the “Amount” value was 15 mg/200 g body weight.
With `CCc1ccc(Cn2cc([C@@H]3O[C@H](CO)[C@@H](O)[C@H](O)[C@H]3O)c3cccc(C)c32)cc1` [Example 5] the “Amount” value was 76 mg/200 g body weight.
For `CCc1ccc(Cn2cc([C@@H]3O[C@H](CO)[C@@H](O)[C@H](O)[C@H]3O)c3cc(C)ccc32)cc1` [Example 7], the “Amount” value was 122 mg/200 g body weight.
In the case of `Cc1ccc2c(c1)c([C@@H]1O[C@H](CO)[C@@H](O)[C@H](O)[C@H]1O)cn2Cc1ccc(OC(C)C)cc1` [Example 11], the “Amount” value is reported as 33 mg/200 g body weight.
In the case of `COc1ccc(Cn2cc([C@@H]3O[C@H](CO)[C@@H](O)[C@H](O)[C@H]3O)c3c(C)cccc32)c(F)c1` [Example 28], the “Amount” value is reported as 36 mg/200 g body weight.
With `CCc1ccc(Cn2cc([C@@H]3O[C@H](CO)[C@@H](O)[C@H](O)[C@H]3O)c3cccc(F)c32)cc1` [Example 61] the “Amount” value was 98 mg/200 g body weight.
In the case of `COc1ccc(Cn2cc([C@@H]3O[C@H](CO)[C@@H](O)[C@H](O)[C@H]3O)c3cccc(F)c32)cc1` [Example 63], the “Amount” value is reported as 213 mg/200 g body weight.
In the case of `OC[C@H]1O[C@@H](c2cn(Cc3ccc(OC(F)F)cc3)c3c(F)cccc23)[C@H](O)[C@@H](O)[C@@H]1O` [Example 66], the “Amount” value is reported as 24 mg/200 g body weight.
`OCCc1ccc(Cn2cc([C@@H]3O[C@H](CO)[C@@H](O)[C@H](O)[C@H]3O)c3cccc(F)c32)cc1` [Example 67] was tested, and the “Amount” value was 17 mg/200 g body weight.
`Cc1ccc(Cn2cc([C@@H]3O[C@H](CO)[C@@H](O)[C@H](O)[C@H]3O)c3cccc(Cl)c32)cc1` [Example 70] was tested, and the “Amount” value was 173 mg/200 g body weight.
For `CCc1ccc(Cn2cc([C@@H]3O[C@H](CO)[C@@H](O)[C@H](O)[C@H]3O)c3cccc(Cl)c32)cc1` [Example 71], the “Amount” value was 517 mg/200 g body weight.
In the case of `COc1ccc(Cn2cc([C@@H]3O[C@H](CO)[C@@H](O)[C@H](O)[C@H]3O)c3cccc(Cl)c32)cc1` [Example 73], the “Amount” value is reported as 532 mg/200 g body weight.
In the case of `COc1ccc(Cn2cc([C@@H]3O[C@H](CO)[C@@H](O)[C@H](O)[C@H]3O)c3cccc(Cl)c32)c(F)c1` [Example 74], the “Amount” value is reported as 629 mg/200 g body weight.
In the case of `CCOc1ccc(Cn2cc([C@@H]3O[C@H](CO)[C@@H](O)[C@H](O)[C@H]3O)c3cccc(Cl)c32)c(F)c1` [Example 75], the “Amount” value is reported as 18 mg/200 g body weight.
For `OCCc1ccc(Cn2cc([C@@H]3O[C@H](CO)[C@@H](O)[C@H](O)[C@H]3O)c3cccc(Cl)c32)cc1` [Example 78], the “Amount” value was 54 mg/200 g body weight.
For `Cc1ccc(Cn2cc([C@@H]3O[C@H](CO)[C@@H](O)[C@H](O)[C@H]3O)c3cc(C)cc(F)c32)cc1` [Example 93], the “Amount” value was 275 mg/200 g body weight.
With `CCc1ccc(Cn2cc([C@@H]3O[C@H](CO)[C@@H](O)[C@H](O)[C@H]3O)c3cc(C)cc(F)c32)cc1` [Example 94] the “Amount” value was 945 mg/200 g body weight.
With `Cc1cc(F)c2c(c1)c([C@@H]1O[C@H](CO)[C@@H](O)[C@H](O)[C@H]1O)cn2Cc1ccc(O)cc1` [Example 95] the “Amount” value was 40 mg/200 g body weight.
For `COc1ccc(Cn2cc([C@@H]3O[C@H](CO)[C@@H](O)[C@H](O)[C@H]3O)c3cc(C)cc(F)c32)cc1` [Example 96], the “Amount” value was 588 mg/200 g body weight.
For `COc1ccc(Cn2cc([C@@H]3O[C@H](CO)[C@@H](O)[C@H](O)[C@H]3O)c3cc(C)cc(F)c32)c(F)c1` [Example 97], the “Amount” value was 507 mg/200 g body weight.
For `Cc1cc(F)c2c(c1)c([C@@H]1O[C@H](CO)[C@@H](O)[C@H](O)[C@H]1O)cn2Cc1ccc(CCO)cc1` [Example 99], the “Amount” value was 47 mg/200 g body weight.
In the case of `Cc1ccc(Cn2cc([C@@H]3O[C@H](CO)[C@@H](O)[C@H](O)[C@H]3O)c3cc(C)cc(Cl)c32)cc1` [Example 102], the “Amount” value is reported as 933 mg/200 g body weight.
`Cc1cc(Cl)c2c(c1)c([C@@H]1O[C@H](CO)[C@@H](O)[C@H](O)[C@H]1O)cn2Cc1ccc(O)cc1` [Example 104] was tested, and the “Amount” value was 349 mg/200 g body weight.
For `COc1ccc(Cn2cc([C@@H]3O[C@H](CO)[C@@H](O)[C@H](O)[C@H]3O)c3cc(C)cc(Cl)c32)cc1` [Example 105], the “Amount” value was 1693 mg/200 g body weight.
For `COc1ccc(Cn2cc([C@@H]3O[C@H](CO)[C@@H](O)[C@H](O)[C@H]3O)c3cc(C)cc(Cl)c32)c(F)c1` [Example 106], the “Amount” value was 1910 mg/200 g body weight.
In the case of `Cc1cc(Cl)c2c(c1)c([C@@H]1O[C@H](CO)[C@@H](O)[C@H](O)[C@H]1O)cn2Cc1ccc(OC(F)F)cc1` [Example 108], the “Amount” value is reported as 1229 mg/200 g body weight.
In the case of `COc1ccc(Cn2cc([C@@H]3O[C@H](CO)[C@@H](O)[C@H](O)[C@H]3O)c3cc(C)cc(C)c32)cc1` [Example 114], the “Amount” value is reported as 520 mg/200 g body weight.
For `CCc1ccc(Cn2cc([C@@H]3O[C@H](CO)[C@@H](O)[C@H](O)[C@H]3O)c3c(C)ccc(F)c32)cc1` [Example 116], the “Amount” value was 24 mg/200 g body weight.
For `COc1ccc(Cn2cc([C@@H]3O[C@H](CO)[C@@H](O)[C@H](O)[C@H]3O)c3c(C)ccc(F)c32)cc1` [Example 118], the “Amount” value was 12 mg/200 g body weight.
In the case of `COc1ccc(Cn2cc([C@@H]3O[C@H](CO)[C@@H](O)[C@H](O)[C@H]3O)c3c(C)ccc(Cl)c32)cc1` [Example 124], the “Amount” value is reported as 37 mg/200 g body weight.
In the case of `COc1ccc(Cn2cc([C@@H]3O[C@H](CO)[C@@H](O)[C@H](O)[C@H]3O)c3c(C)ccc(Cl)c32)c(F)c1` [Example 125], the “Amount” value is reported as 50 mg/200 g body weight.
With `CCOc1ccc(Cn2cc([C@@H]3O[C@H](CO)[C@@H](O)[C@H](O)[C@H]3O)c3cccc(F)c32)cc1` [Example 144] the “Amount” value was 251 mg/200 g body weight.
For `CC(C)Oc1ccc(Cn2cc([C@@H]3O[C@H](CO)[C@@H](O)[C@H](O)[C@H]3O)c3cccc(F)c32)cc1` [Example 145], the “Amount” value was 11 mg/200 g body weight.
`CCOc1ccc(Cn2cc([C@@H]3O[C@H](CO)[C@@H](O)[C@H](O)[C@H]3O)c3cccc(Cl)c32)cc1` [Example 146] was tested, and the “Amount” value was 733 mg/200 g body weight.
For `CC(C)Oc1ccc(Cn2cc([C@@H]3O[C@H](CO)[C@@H](O)[C@H](O)[C@H]3O)c3cccc(Cl)c32)cc1` [Example 147], the “Amount” value was 295 mg/200 g body weight.
`CCOc1ccc(Cn2cc([C@@H]3O[C@H](CO)[C@@H](O)[C@H](O)[C@H]3O)c3cc(C)cc(F)c32)cc1` [Example 156] was tested, and the “Amount” value was 784 mg/200 g body weight.
In the case of `CCOc1ccc(Cn2cc([C@@H]3O[C@H](CO)[C@@H](O)[C@H](O)[C@H]3O)c3cc(C)cc(Cl)c32)cc1` [Example 158], the “Amount” value is reported as 1708 mg/200 g body weight.
